Columns and labels:
Type in all cases: ADME
[1] = biological target: T1, UDP-glucuronosyltransferase 1A10 (Homo sapiens, UniProt Q9HAW8); assay: Activity of human recombinant UGT1A10 at 100 uM; details: recombinant enzyme
T1 sequence (Q9HAW8 whole entry): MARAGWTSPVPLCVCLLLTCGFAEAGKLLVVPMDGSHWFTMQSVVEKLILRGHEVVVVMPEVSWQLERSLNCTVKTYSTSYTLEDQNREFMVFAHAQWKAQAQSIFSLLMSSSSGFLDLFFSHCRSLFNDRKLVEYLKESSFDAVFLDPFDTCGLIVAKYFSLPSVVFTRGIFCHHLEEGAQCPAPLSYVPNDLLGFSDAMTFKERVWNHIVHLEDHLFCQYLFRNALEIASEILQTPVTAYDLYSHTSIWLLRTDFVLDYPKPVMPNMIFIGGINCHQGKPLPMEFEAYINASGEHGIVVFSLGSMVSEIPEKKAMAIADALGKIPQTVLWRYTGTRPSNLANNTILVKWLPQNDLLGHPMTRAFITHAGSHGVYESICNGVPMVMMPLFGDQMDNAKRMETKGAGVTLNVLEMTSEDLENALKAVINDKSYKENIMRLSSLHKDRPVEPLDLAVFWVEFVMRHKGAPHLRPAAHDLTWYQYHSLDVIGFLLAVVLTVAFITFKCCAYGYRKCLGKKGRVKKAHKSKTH

[2] = biological target: T2, UDP-glucuronosyltransferase 1A9 (Homo sapiens, UniProt O60656); assay: Activity of human recombinant UGT1A9 at 100 uM; details: recombinant enzyme
T2 sequence (O60656 whole entry): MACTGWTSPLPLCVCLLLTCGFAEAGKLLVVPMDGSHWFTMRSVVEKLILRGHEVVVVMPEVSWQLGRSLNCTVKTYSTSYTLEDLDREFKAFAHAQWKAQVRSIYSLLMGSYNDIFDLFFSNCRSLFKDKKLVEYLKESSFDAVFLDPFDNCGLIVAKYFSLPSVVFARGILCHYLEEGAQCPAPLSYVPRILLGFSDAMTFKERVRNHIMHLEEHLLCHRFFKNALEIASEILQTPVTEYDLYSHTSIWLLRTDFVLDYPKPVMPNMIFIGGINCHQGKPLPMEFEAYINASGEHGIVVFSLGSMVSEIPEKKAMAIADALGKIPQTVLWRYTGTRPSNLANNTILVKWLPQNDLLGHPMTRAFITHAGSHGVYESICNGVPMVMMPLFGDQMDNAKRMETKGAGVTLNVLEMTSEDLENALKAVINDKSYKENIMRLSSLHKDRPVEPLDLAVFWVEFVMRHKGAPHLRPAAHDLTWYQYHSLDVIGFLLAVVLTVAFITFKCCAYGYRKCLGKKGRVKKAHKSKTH

[3] = biological target: T2, UDP-glucuronosyltransferase 1A9; assay: Drug level assessed as human recombinant UGT1A9-mediated glucuronidation formation treated with irilone incubated for 5 mins prior to UDPGA addition measured after 90 mins by HPLC-DAD analysis; details: recombinant enzyme, 1.5 h
[4] = biological target: T3, UDP-glucuronosyltransferase 1A8 (Homo sapiens, UniProt Q9HAW9); assay: Drug level assessed as human recombinant UGT1A8-mediated glucuronidation treated with 25 uM irilone incubated for 5 mins prior to UDPGA addition measured after 90 mins by HPLC-DAD analysis; details: recombinant enzyme, 1.5 h
T3 sequence (Q9HAW9 whole entry): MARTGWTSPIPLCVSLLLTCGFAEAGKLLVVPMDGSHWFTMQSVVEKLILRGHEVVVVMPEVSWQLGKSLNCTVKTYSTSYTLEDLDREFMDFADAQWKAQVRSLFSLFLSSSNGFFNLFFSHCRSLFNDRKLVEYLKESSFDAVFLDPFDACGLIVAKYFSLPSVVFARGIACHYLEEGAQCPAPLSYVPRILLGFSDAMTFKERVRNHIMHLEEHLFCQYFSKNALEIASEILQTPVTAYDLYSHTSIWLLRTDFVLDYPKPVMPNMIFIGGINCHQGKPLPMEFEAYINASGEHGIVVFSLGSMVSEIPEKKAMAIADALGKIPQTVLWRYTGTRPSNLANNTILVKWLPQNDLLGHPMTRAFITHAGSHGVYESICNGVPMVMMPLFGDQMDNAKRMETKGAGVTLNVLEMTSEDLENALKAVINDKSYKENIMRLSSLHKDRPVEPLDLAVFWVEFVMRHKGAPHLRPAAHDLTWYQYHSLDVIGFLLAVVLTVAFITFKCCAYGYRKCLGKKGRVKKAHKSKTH

[5] = biological target: T4, UDP-glucuronosyltransferase 1A7 (Homo sapiens, UniProt Q9HAW7); assay: Drug level assessed as human recombinant UGT1A7-mediated glucuronidation treated with 25 uM irilone incubated for 5 mins prior to UDPGA addition measured after 90 mins by HPLC-DAD analysis; details: recombinant enzyme, 1.5 h
T4 sequence (Q9HAW7 whole entry): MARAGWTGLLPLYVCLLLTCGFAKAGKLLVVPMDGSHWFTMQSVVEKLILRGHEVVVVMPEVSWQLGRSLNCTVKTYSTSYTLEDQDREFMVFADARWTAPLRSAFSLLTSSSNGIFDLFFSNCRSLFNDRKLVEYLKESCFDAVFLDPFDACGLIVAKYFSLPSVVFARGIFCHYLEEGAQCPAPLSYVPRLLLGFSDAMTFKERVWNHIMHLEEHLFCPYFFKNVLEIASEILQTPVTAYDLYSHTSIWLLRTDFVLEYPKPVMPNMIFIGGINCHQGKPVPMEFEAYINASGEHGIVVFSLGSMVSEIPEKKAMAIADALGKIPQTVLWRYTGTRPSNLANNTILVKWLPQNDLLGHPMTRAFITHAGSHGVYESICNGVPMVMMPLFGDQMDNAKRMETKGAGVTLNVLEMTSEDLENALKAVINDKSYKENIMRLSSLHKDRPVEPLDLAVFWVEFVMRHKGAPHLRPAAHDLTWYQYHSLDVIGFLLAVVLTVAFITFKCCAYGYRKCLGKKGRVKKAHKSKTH

[6] = biological target: T5, UDP-glucuronosyltransferase 1A1 (Homo sapiens, UniProt P22309); assay: Drug level assessed as human recombinant UGT1A1-mediated glucuronidation treated with 25 uM irilone incubated for 5 mins prior to UDPGA addition measured after 90 mins by HPLC-DAD analysis; details: recombinant enzyme, 1.5 h
T5 sequence (P22309 whole entry): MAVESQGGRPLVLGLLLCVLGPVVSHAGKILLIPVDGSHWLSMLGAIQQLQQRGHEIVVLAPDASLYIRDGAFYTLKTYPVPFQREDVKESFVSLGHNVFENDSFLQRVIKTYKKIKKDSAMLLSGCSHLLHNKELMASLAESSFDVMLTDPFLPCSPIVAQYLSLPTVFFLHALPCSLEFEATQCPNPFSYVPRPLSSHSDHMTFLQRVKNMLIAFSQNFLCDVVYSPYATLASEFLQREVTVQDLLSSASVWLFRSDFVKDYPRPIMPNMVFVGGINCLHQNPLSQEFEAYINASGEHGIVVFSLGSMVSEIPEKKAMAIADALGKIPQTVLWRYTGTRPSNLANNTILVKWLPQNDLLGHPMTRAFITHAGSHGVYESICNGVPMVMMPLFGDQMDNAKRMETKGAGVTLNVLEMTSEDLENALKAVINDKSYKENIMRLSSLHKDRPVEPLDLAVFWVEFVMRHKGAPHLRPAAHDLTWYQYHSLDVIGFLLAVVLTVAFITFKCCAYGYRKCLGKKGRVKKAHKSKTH

[7] = biological target: T1, UDP-glucuronosyltransferase 1A10; assay: Activity of human recombinant UGT1A10 assessed as […]-O-4'-monoglucuronide formation incubated for 5 mins prior to UDPGA addition measured after 90 mins by HPLC-DAD analysis; details: recombinant enzyme, 1.5 h
[8] = biological target: T2, UDP-glucuronosyltransferase 1A9; assay: Activity of human recombinant UGT1A9 assessed as […]-O-4'-monoglucuronide formation incubated for 5 mins prior to UDPGA addition measured after 90 mins by HPLC-DAD analysis; details: recombinant enzyme, 1.5 h
[9] = biological target: T1, UDP-glucuronosyltransferase 1A10; assay: Drug level assessed as human recombinant UGT1A10-mediated glucuronidation treated with irilone incubated for 5 mins prior to UDPGA addition measured after 90 mins by HPLC-DAD analysis; details: recombinant enzyme, 1.5 h

| SMILES | Activity [1] | Activity [2] | Drug metabolism [4] | Drug metabolism [5] | Drug metabolism [6] | further results |
| --- | --- | --- | --- | --- | --- | --- |
| O=c1c(-c2ccc(O)cc2)coc2cc(O)ccc12 [DAIDZEIN] | 0.5 nmol/mg/min | 0.5 nmol/mg/min |  |  |  |  |
| COc1c2c(cc3occ(-c4ccc(O)cc4)c(=O)c13)OCO2 [IRISOLONE] |  |  |  |  |  | Drug metabolism [7]: metabolite_detected; Drug metabolism [8]: metabolite_not_detected |
| O=c1c(-c2ccc(O)cc2)coc2cc(O)cc(O)c12 [GENISTEIN] | 0.5 nmol/mg/min | 0.5 nmol/mg/min |  |  |  |  |

Further lines, with some results ahead:

| Activity [1] | Activity [2] | Drug metabolism [4] | Drug metabolism [5] | Drug metabolism [6] | SMILES | further results |
| --- | --- | --- | --- | --- | --- | --- |
|  |  | metabolite_detected | metabolite_detected | metabolite_detected | O=C(O)[C@H]1O[C@@H](Oc2c3c(cc4occ(-c5ccc(O)cc5)c(=O)c24)OCO3)[C@H](O)[C@@H](O)[C@@H]1O | Drug metabolism [3]: metabolite_detected |
|  |  | metabolite_detected | metabolite_detected | metabolite_detected | O=C(O)[C@H]1O[C@@H](Oc2ccc(-c3coc4cc5c(c(O)c4c3=O)OCO5)cc2)[C@H](O)[C@@H](O)[C@@H]1O | Drug metabolism [9]: metabolite_detected |

— ChEMBL document CHEMBL3525955, “Glucuronidation of the red clover isoflavone irilone by liver microsomes from different species and human UDP-glucuronosyltransferases” (Drug Metab Dispos, 2011)
